Numbers after ± are expanded uncertainties.

The text below walks through data of the NIST ThermoML archive (doi:10.1016/j.fluid.2014.01.018).

Series [1] can be described thus: Molar enthalpy of transition or fusion. The note with it: Crystal; DSC.
The conditions of series [2]: Crystal; DTA.

Take `CC(C)C1=CC2=CC[C@@H]3[C@](C)(CCC[C@@]3(C)C(=O)O)[C@H]2CC1` [abietic acid]: in series [1], the “Molar enthalpy of transition or fusion” value turned out to be 4.65 ± 0.136 kcal/mol. The Normal melting temperature in series [2] is 177.74 ± 0.41 °C.
